According to US20250236654A1, “C-TYPE NATRIURETIC PEPTIDE ENGRAFTED ANTIBODIES” (Bayer Aktiengesellschaft, priority 2018, published 2025):
Where a SMILES comes first, the peptide text is derived from it. Bridges are numbered along the chain shown (N, C = ends). Where no end group is shown, it is not given here.

Tests used:
[1] = test system: PE-contracted aortic rings; assay: Vasorelaxation of isolated rat aortic rings contracted by phenylephrine
Experimental: All experiments were conducted in accordance with institutional guidelines and approved by the local committee on animal experiments. Male Sprague-Dawley rats (weighing 250-300 g) were anesthetized with pentobarbital sodium (40 mg/kg i.p.), killed by decapitation, and exsanguinated. The thoracic aorta was excised and placed in ice-cold Krebs buffer of the following composition: 130 mM NaCl, 14.9 mM NaHCO3, 5.5 mM dextrose, 4.7 mM KCl, 1.18 mM KH2PO4, 1.17 mM MgSO47H2O, and 1.6 mM CaCl22H2O. The vessel was pinned in a Sylgard Petri dish filled with chilled Krebs' solution, cleaned of fat and connective tissue, and cut into ring segments of approximately 3 to 4 mm in length. […] Changes in isometric force were recorded using a PowerLab data acquisition system (software Lab Chart 7.0)
After the equilibration period, aortic rings were challenged with 80 mM KCl to check tissue viability. Next, the endothelial integrity of the preparations was determined by verifying the responsiveness to acetylcholine (ACh, 1 μM) in vessels pre-contracted with Phenylephrine (PE, 1 μM). After wash-out and a period of equilibration, Phenylephrine (PE, 1 μM) was used to induce contraction, thereafter natriuretic peptides and natriuretic peptide engrafted IgGs were evaluated for vasorelaxation.

[2] = test system: spontaneously hypertensive rats; assay: Blood pressure by radiotelemetry in conscious spontaneously hypertensive rats; assay type: in vivo, rat; set-up: drop in mean arterial blood pressure (MAP): dose or concentration left out as unconfirmed; details: intraperitoneal
Experimental: Female spontaneously hypertensive rats (SHR/N Crl BR, Charles River) with a body weight of 210-300 g were used for these studies. All animals were housed in individual cages at 22-24° C. ambient temperature and maintained on a 12-hour light/dark cycle with free access to standard laboratory rat chow and water ad libitum. Telemeter (HD-10, DSI) implantation was performed a minimum of 14 days before animals were used for blood pressure measurements. Surgery was performed under aseptic conditions. After shaving the abdominal wall, a midline abdominal incision was made, and the fluid-filled sensor catheter was inserted upstream into the exposed descending aorta between the iliac bifurcation and the renal arteries. According to the DSI guidelines the tip of the telemetric catheter was located caudal to the renal arteries and secured by tissue adhesive. The transmitter body was affixed to the inner peritoneal wall before closure of the abdomen. […] Data are expressed as % of basal values±SEM of at least 4 animals per group. The basal value for each animal was calculated as the average of the values measured in two hours prior to substance application (7:00-9:00 AM). Data are then expressed as averages every half hour, starting 15 minutes post application. […]

[3] = target: T1, insulin degrading enzyme (IDE) (Rattus norvegicus, UniProt P35559); assay: Sensitivity towards proteolytic degradation by IDE (activity on receptor cell line after incubation); assay type: in vitro ADME; details: 4 hours, 37° C., 0.6 μg/ml IDE
T1 construct: purchased Merck 407241-50UG
T1 sequence (P35559 1-1019): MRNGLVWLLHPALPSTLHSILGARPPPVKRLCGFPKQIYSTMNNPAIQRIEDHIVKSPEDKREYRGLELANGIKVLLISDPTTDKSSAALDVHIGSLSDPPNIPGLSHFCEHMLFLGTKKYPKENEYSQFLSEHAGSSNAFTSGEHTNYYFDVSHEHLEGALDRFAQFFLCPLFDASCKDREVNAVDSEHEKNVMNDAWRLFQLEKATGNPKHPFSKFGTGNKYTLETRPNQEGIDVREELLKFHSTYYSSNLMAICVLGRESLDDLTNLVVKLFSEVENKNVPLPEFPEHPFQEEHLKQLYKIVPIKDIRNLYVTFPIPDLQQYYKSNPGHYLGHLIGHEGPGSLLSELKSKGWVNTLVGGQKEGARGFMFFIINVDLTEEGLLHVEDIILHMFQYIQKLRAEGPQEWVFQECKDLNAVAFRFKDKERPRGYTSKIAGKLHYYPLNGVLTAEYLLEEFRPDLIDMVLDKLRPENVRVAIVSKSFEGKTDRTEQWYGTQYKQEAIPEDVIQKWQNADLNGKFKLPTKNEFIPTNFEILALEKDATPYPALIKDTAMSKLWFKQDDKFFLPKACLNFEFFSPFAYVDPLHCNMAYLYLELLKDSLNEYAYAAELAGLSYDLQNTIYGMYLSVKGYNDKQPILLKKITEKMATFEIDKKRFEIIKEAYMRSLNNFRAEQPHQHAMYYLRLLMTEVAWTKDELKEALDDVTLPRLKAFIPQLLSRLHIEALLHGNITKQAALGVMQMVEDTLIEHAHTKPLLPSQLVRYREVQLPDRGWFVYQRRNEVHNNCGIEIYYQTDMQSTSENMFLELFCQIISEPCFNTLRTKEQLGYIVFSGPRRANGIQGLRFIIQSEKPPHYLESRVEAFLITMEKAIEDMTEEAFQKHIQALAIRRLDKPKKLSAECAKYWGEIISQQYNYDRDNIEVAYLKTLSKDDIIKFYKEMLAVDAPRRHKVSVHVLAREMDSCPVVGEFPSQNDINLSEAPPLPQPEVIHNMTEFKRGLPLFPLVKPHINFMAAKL

rat BNP receptor (NPR-A) = target: T2, rat BNP receptor (NPR-A) (Rattus norvegicus, UniProt P18910); assay: Fluorescence-based rat BNP receptor (NPR-A) GCaMP6 reporter cell line
T2 construct: expressed in transfected cells; host or cells: CHO cell line stably expressing GCaMP6, co-transfected with CNGA2 and rat NPR-A
T2 sequence (P18910 29-1057): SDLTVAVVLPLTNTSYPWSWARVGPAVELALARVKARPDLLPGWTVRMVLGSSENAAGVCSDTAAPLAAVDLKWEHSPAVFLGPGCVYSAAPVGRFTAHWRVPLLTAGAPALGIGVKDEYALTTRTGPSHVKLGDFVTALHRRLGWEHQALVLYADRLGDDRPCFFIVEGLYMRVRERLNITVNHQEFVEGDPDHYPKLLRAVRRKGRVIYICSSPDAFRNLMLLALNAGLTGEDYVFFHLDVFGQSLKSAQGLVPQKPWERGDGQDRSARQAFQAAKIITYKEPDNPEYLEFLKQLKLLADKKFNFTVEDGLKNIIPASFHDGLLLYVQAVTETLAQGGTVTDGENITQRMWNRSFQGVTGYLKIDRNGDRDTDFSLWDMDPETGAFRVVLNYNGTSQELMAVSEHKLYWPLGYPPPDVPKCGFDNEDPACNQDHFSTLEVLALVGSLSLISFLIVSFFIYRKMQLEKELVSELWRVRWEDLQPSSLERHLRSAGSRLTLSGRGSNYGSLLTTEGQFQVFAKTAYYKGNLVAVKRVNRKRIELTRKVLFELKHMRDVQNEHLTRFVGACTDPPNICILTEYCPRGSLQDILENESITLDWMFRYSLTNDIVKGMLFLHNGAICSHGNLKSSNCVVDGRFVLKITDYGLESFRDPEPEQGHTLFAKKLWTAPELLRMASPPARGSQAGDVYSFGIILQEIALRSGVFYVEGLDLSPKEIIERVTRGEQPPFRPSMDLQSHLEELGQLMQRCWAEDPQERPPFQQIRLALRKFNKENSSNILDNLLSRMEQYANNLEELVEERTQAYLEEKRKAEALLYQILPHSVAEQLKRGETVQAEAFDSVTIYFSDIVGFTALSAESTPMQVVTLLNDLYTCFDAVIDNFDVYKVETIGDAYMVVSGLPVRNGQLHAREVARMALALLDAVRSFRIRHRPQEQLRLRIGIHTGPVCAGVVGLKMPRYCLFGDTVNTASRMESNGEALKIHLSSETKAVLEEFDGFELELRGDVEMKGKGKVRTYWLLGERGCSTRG
Source text: Activity data of BNP engrafted antibodies in NPR-A receptor cell line A luminescence-based rat BNP receptor (NPR-A) cell line was generated as described previously (Wunder et al. (2013), Eur J Pharmacol. 698: 131). Accordingly, a fluorescence-based rat BNP receptor (NPR-A) cell line was generated by co-transfecting a CHO cell line, stably expressing the fluorescent calcium sensor protein GCaMP6, with plasmid constructs encoding CNGA2 (cGMP biosensor) and rat NPR-A.
BNP receptor GCaMP6 cells were cultured for one day on black, clear-bottom 384-well microtiter plates (2500 cells/well). After removal of the cell culture medium reporter cells were loaded for 20 min with Tyrode (130 mM NaCl, 5 mM KCl, 2 mM CaCl2, 20 mM HEPES, 1 mM MgCl2, 4.8 mM NaHCO3 at pH 7.4) containing a black masking dye at 37° C. and 5% CO2. IBMX (0.2 mM) was used to prevent cGMP degradation by endogenous phosphodiesterases.
Fluorescence measurements (3 min, kinetic mode) were directly started upon agonist addition. Receptor ligands were added in Tyrode containing a black masking dye and 0.1% BSA. Measurements were done on a FLIPR Tetra®.

[4] = target: T3, neutral endopeptidase (NEP) (Homo sapiens, UniProt P08473); assay: Sensitivity towards proteolytic degradation by NEP (activity on receptor cell line after incubation); assay type: in vitro ADME; details: 4 hours, 37° C., 0.6 μg/ml NEP
T3 construct: purchased R&D Systems 1182-ZNC
T3 sequence (P08473 whole entry): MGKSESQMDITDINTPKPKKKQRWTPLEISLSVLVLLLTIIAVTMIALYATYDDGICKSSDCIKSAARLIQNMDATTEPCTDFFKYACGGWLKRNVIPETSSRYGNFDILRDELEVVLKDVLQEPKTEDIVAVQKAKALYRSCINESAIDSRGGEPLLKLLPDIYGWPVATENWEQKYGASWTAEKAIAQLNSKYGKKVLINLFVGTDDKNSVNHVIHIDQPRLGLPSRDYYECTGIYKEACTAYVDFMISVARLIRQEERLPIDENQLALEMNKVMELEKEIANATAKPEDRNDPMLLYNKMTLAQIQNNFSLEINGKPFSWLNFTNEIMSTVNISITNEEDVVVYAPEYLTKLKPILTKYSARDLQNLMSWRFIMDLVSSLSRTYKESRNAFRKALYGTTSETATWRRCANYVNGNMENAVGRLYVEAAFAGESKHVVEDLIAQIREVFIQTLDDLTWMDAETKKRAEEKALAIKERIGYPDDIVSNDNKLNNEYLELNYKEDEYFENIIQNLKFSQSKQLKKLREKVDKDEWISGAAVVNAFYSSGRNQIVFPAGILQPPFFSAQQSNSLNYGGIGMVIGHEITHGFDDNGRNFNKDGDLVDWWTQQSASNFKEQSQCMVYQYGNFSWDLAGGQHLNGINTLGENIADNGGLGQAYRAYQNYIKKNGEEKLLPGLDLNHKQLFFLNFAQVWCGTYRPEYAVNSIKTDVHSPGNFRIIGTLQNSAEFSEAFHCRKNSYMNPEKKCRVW

With “ANP peptide: Rat ANP peptide (ADH-GM-10057T, Santai Labs) used as a reference (SLRRSSCFGGRIDRIGAQSGLGCNSFRY; disulfide 7-23; UniProt P01161 123-150, looked up) [reference compound]” the “vasodilation in PE-contracted aortic rings” value [1] was “dose-dependent vasodilation”, the “Potency (log EC50 values), vasodilation” value ([1]; endothelium-intact rat aortic rings contracted by phenylephrine (1 μM)) was −7.4 and the “drop in mean arterial blood pressure (MAP)” value [2] was “approximately 25%”. The “duration of effect on MAP” value ([2]; 500 g dose) was 6 to 8 h.

With `CC[C@H](C)[C@@H]1NC(=O)[C@H](CCCNC(=N)N)NC(=O)[C@H](CC(=O)O)NC(=O)[C@H](CCSC)NC(=O)[C@H](CCCNC(=N)N)NC(=O)CNC(=O)CNC(=O)[C@H](Cc2ccccc2)NC(=O)[C@@H](NC(=O)[C@H](CO)NC(=O)[C@H](CO)NC(=O)[C@H](CCCNC(=N)N)NC(=O)[C@H](CCCNC(=N)N)NC(=O)[C@H](CC(C)C)NC(=O)[C@@H](N)CO)CSSC[C@@H](C(=O)N[C@@H](CC(N)=O)C(=O)N[C@@H](CO)C(=O)N[C@@H](Cc2ccccc2)C(=O)N[C@@H](CCCNC(=N)N)C(=O)N[C@@H](Cc2ccc(O)cc2)C(=O)O)NC(=O)CNC(=O)[C@H](CC(C)C)NC(=O)CNC(=O)[C@H](CO)NC(=O)[C@H](CCC(N)=O)NC(=O)[C@H](C)NC(=O)CNC1=O` [ANP, reference compound] the “sensitivity/resistance to proteolytic degradation by IDE” value [3] was “high sensitivity”.

In the case of `CC[C@H](C)[C@@H]1NC(=O)[C@H](CCCNC(=N)N)NC(=O)[C@H](CC(=O)O)NC(=O)[C@H]([C@@H](C)CC)NC(=O)[C@H](CCCCN)NC(=O)[C@H](CCC(N)=O)NC(=O)CNC(=O)[C@H](Cc2ccccc2)NC(=O)[C@@H](NC(=O)[C@H](CO)NC(=O)[C@H](CO)NC(=O)[C@H](CO)NC(=O)[C@H](Cc2c[nH]cn2)NC(=O)[C@H](C)NC(=O)[C@H](CCSC)NC(=O)[C@H](CCCCN)NC(=O)[C@H](CO)NC(=O)[C@@H](N)CC(N)=O)CSSC[C@@H](C(=O)N[C@@H](CC(=O)O)C(=O)NCC(=O)N[C@@H](CC(C)C)C(=O)N[C@@H](CCCNC(=N)N)C(=O)N[C@@H](CC(C)C)C(=O)N[C@@H](Cc2ccccc2)C(=O)O)NC(=O)CNC(=O)[C@H](CC(C)C)NC(=O)[C@H](CCCNC(=N)N)NC(=O)[C@H](CO)NC(=O)[C@H](C(C)C)NC(=O)[C@H](C)NC(=O)CNC1=O` [BNP, reference compound] (H-NSKMAHSSSCFGQKIDRIGAVSRLGCDGLRLF-OH; disulfide 10-26; N-terminus and C-terminus assumed), the EC50 (rat BNP receptor (NPR-A)) is reported as 2.9 nM, the “sensitivity/resistance to proteolytic degradation by NEP” value [4] is reported as “high sensitivity” and the “sensitivity/resistance to proteolytic degradation by IDE” value [3] is reported as “high sensitivity”.
